“And” between values parts separate entries of the source, which are not always exact repeats. Equal values may be shown once.

The subject of the test is 324938-238-R-J1-PDC complex spheroid growth, % test/control. Kind of test: Anticancer human tumor 324938-238-R-J1-PDC patient-derived bladder carcinoma cell line growth inhibition [AhR]. Conditions: for viability, T/C: stronger effect = lower value. From the text:
Multicellular complex tumor spheroid response to aryl hydrocarbon receptor antagonists in combination with a variety of drugs and investigational agents in selected tumor cell lines
The current study was undertaken to assess response to aryl hydrocarbon receptor antagonists in combination with standard-of-care drugs and investigational agents in solid tumor complex spheroid models. Complex spheroids include a stromal component modeled by human endothelial cells (HUVEC) and fibroblasts modeled by human mesenchymal stem cells (MSCs). The concentration ranges selected for each drug and investigational agent were based upon clinically achievable concentrations if the clinical Cmax of the agent was known.
Compounds. The drugs and investigational agents: BAY 2416964 (NSC825713), GNF351 (NSC835774), CH-223191 (NSC835775), CPI-455 (NSC825282), aza-TdCyd (NSC777586), decitabine (NSC127716), belinostat (NSC758774), entinostat (NSC756642), pevonedistat (NSC761192), tazemetostat (NSC777109), talazoparib (NSC765396), olaparib (NSC753686), selinexor (NSC780203), nedisertib (M3814, NSC802822), bortezomib (NSC756655), venetoclax (NSC766270), doxorubicin (NSC123127), elimusertib (BAY189344, NSC800525), ceralasertib (AZD6738, NSC777638), TAK-243 (NSC785004), alisertib (NSC759677), etoposide (NSC141540), topotecan (NSC609699), eribulin (NSC707389), gemcitabine (NSC613327), carboplatin (NSC241240), cisplatin (NSC119875), and SN-38 (NSC673596) were obtained from the National Cancer Institute (NCI) Developmental Therapeutics Program Chemical Repository (32). The FDA-approved anticancer drug set is available from the Developmental Therapeutics Program at https://dtp.cancer.gov/organization/dscb/obtaining/available plates.htm. […] The stock solutions were prepared in dimethyl sulfoxide (DMSO, Sigma-Aldrich, St. Louis, MO, cat. D2650), except for the platinum compounds which were prepared in saline (Quality Biological, Gaithersburg, MD, cat. 114-055-101), at 800-fold the tested concentration and stored at -70 degrees C prior to their use. All drugs and investigational agents were tested over a range starting from a high concentration at or near the clinical Cmax and decreasing in half-log increments. If the clinical Cmax for an agent had not been determined, the highest concentration tested was 10 microM (Table 1).
Cell Culture. All cells were maintained in an incubator at 37 degrees C and 5% CO2 with 95% humidity. The PDC lines were cultured according to standard operating procedures established by the NCI PDMR (https://pdmr.cancer.gov). Briefly, all PDCs were thawed and cultured in Matrigel-coated flasks prepared with a working solution of 1X Ham's F-12 nutrient mix, without supplementation (Invitrogen, Waltham, MA, cat. 11765054), 100 U/mL penicillin-streptomycin (Invitrogen, cat. 15140122), and 2.5% Matrigel (Corning Inc., Corning, NY, cat. 354248) for the first three passages. All PDCs were cultured in complete DMEM/F-12 media containing advanced DMEM/F-12 (Invitrogen, cat. 12634028), 4.9% defined fetal bovine serum, heat inactivated (HyClone Laboratories Inc., Logan, UT, cat. SH30070.03HI), 389 ng/mL hydrocortisone (Sigma-Aldrich, cat. H4001), 9.7 ng/mL human EGF recombinant protein (Invitrogen, cat. PHG0313), 23.4 microg/mL adenine (Sigma-Aldrich, cat. A2786), 97.3 U/mL penicillin-streptomycin (Invitrogen, cat. 15140122), 1.9 mM L-glutamine (Invitrogen, cat. 25030081), and 9.7 microM Y-27632 dihydrochloride (Tocris Bioscience, Bristol, United Kingdom, cat. 1254). The PDCs were cultured in complete DMEM/F12 media without 10 microM Y-27632 dihydrochloride for at least two passages prior to the screen. The established cell lines NCI-H1341 and […] were cultured in DMEM/F-12, HEPES (Invitrogen, cat. 11330032), 5% defined fetal bovine serum (HyClone Laboratories Inc., cat. SH30070.03), ITS premix universal culture supplement [insulin (5 microg/mL), transferrin (5 microg/mL), and selenious acid (5 ng/mL)] […]

[1] abbreviates: curve of first compound, second compound 0.1 µM.
Setting [2] is: curve of first compound, second compound 0.316 µM.
The mark [3] stands for this setting: curve of first compound, second compound 1 µM.
Where [4] appears, read: curve of first compound, second compound 3.16 µM.
Where [5] appears, read: curve of first compound, second compound 10 µM.
Where [6] appears, read: second compound 0.1 µM, first compound 0.0316 µM.
The mark [7] stands for this setting: second compound 0.1 µM, first compound 0.1 µM.
[8] abbreviates: second compound 0.1 µM, first compound 0.316 µM.
Setting [9] is: second compound 0.1 µM, first compound 1 µM.
Setting [10] is: second compound 0.1 µM, first compound 3.16 µM.
Setting [11] is: second compound 0.1 µM, first compound 10 µM.
Where [12] appears, read: second compound 0.316 µM, first compound 0.0316 µM.
The mark [13] stands for this setting: second compound 0.316 µM, first compound 0.1 µM.
Where [14] appears, read: second compound 0.316 µM, first compound 0.316 µM.
Setting [15] is: second compound 0.316 µM, first compound 1 µM.
The mark [16] stands for this setting: second compound 0.316 µM, first compound 3.16 µM.
Setting [17] is: second compound 0.316 µM, first compound 10 µM.
Where [18] appears, read: second compound 1 µM, first compound 0.0316 µM.
The mark [19] stands for this setting: second compound 1 µM, first compound 0.1 µM.
Where [20] appears, read: second compound 1 µM, first compound 0.316 µM.
Where [21] appears, read: second compound 1 µM, first compound 1 µM.
Where [22] appears, read: second compound 1 µM, first compound 3.16 µM.
The mark [23] stands for this setting: second compound 1 µM, first compound 10 µM.
The mark [24] stands for this setting: second compound 3.16 µM, first compound 0.0316 µM.
[25] abbreviates: second compound 3.16 µM, first compound 0.1 µM.
[26] abbreviates: second compound 3.16 µM, first compound 0.316 µM.
The mark [27] stands for this setting: second compound 3.16 µM, first compound 1 µM.
[28] abbreviates: second compound 3.16 µM, first compound 3.16 µM.
The mark [29] stands for this setting: second compound 3.16 µM, first compound 10 µM.
Where [30] appears, read: second compound 10 µM, first compound 0.0316 µM.
Setting [31] is: second compound 10 µM, first compound 0.1 µM.
Setting [32] is: second compound 10 µM, first compound 0.316 µM.
Setting [33] is: second compound 10 µM, first compound 1 µM.
Setting [34] is: second compound 10 µM, first compound 3.16 µM.
Where [35] appears, read: second compound 10 µM, first compound 10 µM.
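Also: spheroids exposed to agents for seven days before viability read.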

By viability, T/C is commonly meant the result in the treated group divided by that in the control group, in per cent. For `COc1cc(Nc2ncc3c(n2)-c2ccc(Cl)cc2C(c2c(F)cccc2OC)=NC3)ccc1C(=O)O`, the viability, T/C by setting is: (compound 0.0316 µM) 101% and 74% and 71.8%; (compound 0.1 µM) 111% and 56% and 46%; (compound 0.316 µM) 68.3% and 32.7% and 27.7%; (compound 1 µM) 92% and 36% and 28.2%; (compound 3.16 µM) 92.5% and 38.2% and 27.3%; (compound 10 µM) 75.8% and 39.1% and 32.8%.
As to `COc1cc(C2c3cc4c(cc3C(OC3OC5COC(C)OC5C(O)C3O)C3COC(=O)C23)OCO4)cc(OC)c1O` (stereo not drawn), the viability, T/C is, setting by setting: (compound 0.0316 µM) 118% and 99.2% and 96.2%; (compound 0.1 µM) 101% and 103% and 86.9%; (compound 0.316 µM) 113% and 51.8% and 53%; (compound 1 µM) 97% and 31.6% and 32.9%; (compound 3.16 µM) 78.7% and 31.4% and 29.9%; (compound 10 µM) 95.9% and 19% and 20%.
A word on the IC50: it is the point on the concentration scale where inhibition reaches its midpoint. As to `COc1ccc([C@@H](O)c2cc(-c3ncnc4cc(N5CCOCC5)ccc34)c(F)cc2Cl)nn1` + Cc1cncc(-c2nc(NCCc3c[nH]c4ccccc34)c3ncn(C(C)C)c3n2)c1, the IC50 was 8950 nM under setting [1]; 7370 nM under setting [2]; > 10000 nM under setting [3]; > 10000 nM under setting [4]; < 31.6 nM under setting [5]. Moreover, the viability, T/C under setting [6] was 152%; the viability, T/C under setting [7] was 91.7%; the viability, T/C under setting [8] is 96.2%; the viability, T/C under setting [9] is 89.5%; the viability, T/C under setting [10] was 63.5%; the viability, T/C under setting [11] is 51.4%. Besides, the viability, T/C is 116% under setting [12]; 125% under setting [13]; 81.6% under setting [14]; 94.9% under setting [15]; 81% under setting [16]; 38.1% under setting [17]. Moreover, the viability, T/C was 137% under setting [18]; 112% under setting [19]; 119% under setting [20]; 86.1% under setting [21]; 79.2% under setting [22]; 64.2% under setting [23]. Also, the viability, T/C reads like this: under setting [24], 108%; under setting [25], 80.2%; under setting [26], 86.3%; under setting [27], 69.8%; under setting [28], 43.4%; under setting [29], 58.5%. The viability, T/C runs as follows: under setting [30], 3.67%; under setting [31], 4.08%; under setting [32], 3.62%; under setting [33], 2.73%; under setting [34], 3.64%; under setting [35], 3.08%.
`CC(CO)NC(=O)c1cc(-c2ccc(Cl)cc2)nn(-c2cnn(C)c2)c1=O` (stereo not drawn): the viability, T/C (compound 0.316 µM) is 91% [middle of 21 runs]; the viability, T/C (compound 1 µM) is 82.4% [middle of 21 runs]; the viability, T/C (compound 10 µM) was 68.8% [middle of 19 runs]. For the same compound, the IC50 (compound alone, run of 07/12/2022) is > 10000 nM.
Consider `CC(C)CC(NC(=O)C(Cc1ccccc1)NC(=O)c1cnccn1)B(O)O` (stereo not drawn), for which the viability, T/C runs as follows: (compound 0.000949 µM) 87.9% and 116% and 93.5%; (compound 0.003 µM) 85.2% and 98.1% and 15.2%; (compound 0.00949 µM) 0.63% and 1.24% and 0.3%; (compound 0.03 µM) 0.28% and 0.36% and 0.27%; (compound 0.0949 µM) 0.78% and 0.3% and 0.27%; (compound 0.3 µM) 0.76% and 0.41% and 0.31%. The IC50 (curve of compound) was 4.84 nM and 5.31 nM and 1.8 nM.
On to `O=C(C=Cc1cccc(S(=O)(=O)Nc2ccccc2)c1)NO` + Cc1ccccc1N=Nc1ccc(NC(=O)c2ccnn2C)c(C)c1, for which the IC50 stood at 3110 nM under setting [1]; 2790 nM under setting [2]; 3060 nM under setting [3]; 2570 nM under setting [4]; 2790 nM under setting [5]. The viability, T/C under setting [6] is 103%; the viability, T/C under setting [7] was 91.5%; the viability, T/C under setting [8] is 98.4%; the viability, T/C under setting [9] is 65.5%; the viability, T/C under setting [10] was 53.8%; the viability, T/C under setting [11] was 33.4%. The viability, T/C is, setting by setting: under setting [12], 98%; under setting [13], 102%; under setting [14], 81.1%; under setting [15], 69%; under setting [16], 48.1%; under setting [17], 32.5%. Besides, the viability, T/C runs as follows: under setting [18], 93.3%; under setting [19], 99.1%; under setting [20], 84.4%; under setting [21], 75.8%; under setting [22], 48.2%; under setting [23], 33.2%. Moreover, the viability, T/C is 84.1% under setting [24]; 84.6% under setting [25]; 83.5% under setting [26]; 66.3% under setting [27]; 47.2% under setting [28]; 38.6% under setting [29]. Also, the viability, T/C reads like this: under setting [30], 78.4%; under setting [31], 85.2%; under setting [32], 71.3%; under setting [33], 62.1%; under setting [34], 49.6%; under setting [35], 36.3%.

Values taken from PubChem BioAssay AID1918995 (Molecular Pharmacology Branch, DTP, NCI, 2023).
